Where two headings read alike, the source gives them in different places. Marks after values point to notes of the source that are not given here. Values belong to the compound of their own block, whether it stands above or below them.
Columns and labels:
[1] = cited from earlier work; for pKa (ethyl analog) / pKa (propyl analog): ref [1],[5],[7]; for pKa: in water, ref [4]
[2] = aqueous solubility (observation); format: physicochemical; conditions: at low pH / pH ≤ pKa
Text: All of the compounds except 2 show evidence of a systematic decrease in pKa as the number of carbons between the amine and sulfonic acid functional groups decreases.

[3] = pKa of ammonium ion proton dissociation by aqueous solution titrimetry; format: physicochemical
Experimental: We then performed titrations to determine the pKa values of proton dissociation from the ammonium ion (1a and equivalent). The pKa values determined for these compounds, along with those of the analogous aminoethanesulfonate and aminopropanesulfonate buffer pKa values for comparison is presented in Table 1.
Acid dissociation constants for the ammonium ions were determined by aqueous solution titrimetry (min. 5 repetitions from low to high, then high to low pH) using standardized NaOH and HCl solutions.

E. coli strain HB101 = assay: culture growth with buffer compounds, optical density at 600 nm; format: cell-based; conditions: for Final OD600: E. coli HB101, pH 7.2, 37 °C, 18 h, 3 trials; for culture growth support: all concentrations tested (10, 20, 50 mM); for toxicity or culture growth inhibition: higher concentrations of buffer
Experimental: In order to assess the potential utility of these compounds as biological buffers, we conducted an initial experiment with different concentrations of the new compounds with E. coli strain HB101 at pH 7.2 and 37 °C for 18 h. Culture growth was estimated by optical density measurement at 600 nm, and the results are summarized in Table 2 (in which each value is the result of 3 separate trials, with an overall standard error for all final measurements of 0.025).

[4] = 2nd (ammonium) dissociation constant value
[5] = ammonium ion, aqueous titration

SMILES: O=S(=O)(O)CCNC1CCCCC1 [CHES, 2-(cyclohexylamino)ethanesulfonic acid]
- pKa (ethyl analog) [1]: 9.3

SMILES: O=S(=O)(O)CCCN1CCN(CCO)CC1 [EPPS, 4-(2-hydroxyethyl)-1-piperazinepropanesulfonic acid]
- pKa (propyl analog) [1]: 8.0

SMILES: O=S(=O)(O)CCN1CCN(CCO)CC1 [HEPES]
- pKa (ethyl analog) [1]: 7.5

- aqueous solubility [2]: limited aqueous solubility
SMILES: O=S(=O)(O)CCN1CCN(CCS(=O)(=O)O)CC1 [PIPES, reference compound]
- pKa (ethyl analog) [1, 4]: 6.8^b

SMILES: O=S(=O)(O)CCCN1CCN(CCCS(=O)(=O)O)CC1 [PIPPS, piperazine-N,N′-bis(3-propanesulfonic acid]
- pKa (propyl analog) [1, 4]: 8.0^b

SMILES: NCS(=O)(=O)O [aminomethanesulfonic acid]
- pKa [1]: 5.75

SMILES: O=S(=O)(O)CN1CCOCC1 [compound 1, N-Morpholinomethanesulfonic acid]
- pKa ([3]; 0.3 M solution at 20 °C): 3.8
- pKa [3, 5]: 3.9
- Final OD600 (E. coli strain HB101; 10 mM buffer): 1.16
- Final OD600 (E. coli strain HB101; 20 mM buffer): 1.22
- Final OD600 (E. coli strain HB101; 50 mM buffer): 1.18
- culture growth support (E. coli strain HB101): supported culture growth at all concentrations tested

SMILES: O=S(=O)(O)CN1CCN(CCO)CC1 [compound 2, N-(2-hydroxyethyl)piperazine-N′-methanesulfonic acid]
- pKa ([3]; 0.25M solution at 20 °C): 7.4
- pKa [3, 5]: 7.9
- Final OD600 (E. coli strain HB101; 10 mM buffer): 1.16
- Final OD600 (E. coli strain HB101; 20 mM buffer): 1.08
- Final OD600 (E. coli strain HB101; 50 mM buffer): 0.66
- culture growth support (E. coli strain HB101): supported culture growth at all concentrations tested
- toxicity or culture growth inhibition (E. coli strain HB101): possible toxicity or other culture growth inhibition

SMILES: O=S(=O)(O)CN1CCN(CS(=O)(=O)O)CC1 [compound 3, Piperazine-N,N′-bis(methanesulfonic acid)]
- pKa ([3]; 0.3 M solution at 20 °C): 4.8
- pKa ([3]; 2nd (ammonium) dissociation constant value, aqueous titration): 4.9
- Final OD600 (E. coli strain HB101; 10 mM buffer): 1.23
- Final OD600 (E. coli strain HB101; 20 mM buffer): 1.21
- Final OD600 (E. coli strain HB101; 50 mM buffer): 1.08
- culture growth support (E. coli strain HB101): supported culture growth at all concentrations tested
- toxicity or culture growth inhibition (E. coli strain HB101): possible toxicity or other culture growth inhibition
- aqueous solubility [2]: does not demonstrate the limited aqueous solubility

- pKa ([3]; 0.3 M solution at 20 °C): 7.8
- pKa [3, 5]: ~7
- aqueous solubility [2]: limited solubility in aqueous solution
SMILES: O=S(=O)(O)CNC1CCCCC1 [compound 4, Cyclohexylaminomethanesulfonic acid]

SMILES: NS(=O)(=O)O [sulfamic acid]
- pKa [1]: 1.01
